Reference: patent publication US20150105383A1, “HDAC Inhibitors, Alone Or In Combination With PI3K Inhibitors, For Treating Non-Hodgkin's Lymphoma” (Acetylon Pharmaceuticals, Inc., priority 2013, published 2015)
“Also recorded” adds a separate entry of the source.

Tests used:
[1] = test system: Mino, Jeko1, Granta-519, U2932 and SUDHL16 cells; assay: MTS cell viability, dose-matrix combination of HDAC6 inhibitor and PI3K inhibitor (Fa-CI, Chou-Talalay); assay type: cell-based, human; conditions: HDAC6 inhibitor in combination with a PI3K inhibitor (GDC-0941 or GS-1101/CAL-101), 48 hr
Procedure: Human lymphoma cell lines were selected that represented the most common subtypes of NHL. For Mantle Cell Lymphoma (MCL) Mino, Jeko1, and Granta-519 cells were utilized, while U2932 and SUDHL16 cells represented the activated B cell (ABC) and germinal center (GC) subtypes of diffuse large B cell lymphoma (DLBCL), respectively. Briefly, cells were seeded in 384-well plates and treated in quadruplicate in a dose-matrix format with an HDAC6 inhibitor (Compound A, Compound B, or Compound C) in combination with a PI3K inhibitor (GDC-0941 or GS-1101/CAL-101). After incubating these cells for 48 hr, total cell viability was assessed via an MTS assay (Aqueous One, Promega). The fraction affected (Fa) was subsequently determined for each dose combination and the combination index (CI) was assessed using the method of Chou-Talay.

[2] = test system: Jeko1, Mino or Granta-519 lymphoma cells; assay: Cell cycle distribution by flow cytometry, statements for all cell lines together; assay type: cell-based, human; conditions: Compound A or B 2 μM and/or PI3K inhibitor, 4 days
Procedure: The relative fraction of cells in each stage of the cell cycle (G0/G1, S, and G2/M), as well as the fraction of dead cells (Sub G1) was then estimated. Cells were treated with DMSO, Compound A or B (2 μM), GDC-0941 (0.075-0.5 μM), or the combination of Compound A or B (2 μM) with GDC-0941 (0.075-0.5 μM) on cell cycle inhibition. Alternatively, cells were treated with DMSO, Compound A or B (2 μM), CAL-101 (1-2 μM), or the combination of Compound A or B (2 μM) with CAL-101 (1-2 μM) before measuring effects on cell cycle inhibition.

[3] = test system: Jeko1 or Mino lymphoma cells; assay: Apoptosis by flow cytometry, statements for the cell lines together; assay type: cell-based, human; conditions: 4 days; for cellular apoptosis: Compound A or B plus a PI3Ki, lymphoma cells; for apoptosis / percentage of apoptotic cells: Jeko1 or Mino, relative to control cells (DMSO), Compound A or B 2-3 μM, GDC-0941 0.075-2 μM, CAL-101 2 μM
Procedure: Jeko1 (FIG. 4A and FIG. 4B) or Mino (FIG. 4C) lymphoma cells were exposed to drug for 4 days, and apoptosis was assessed by flow cytometry by measuring Annexin V binding and cellular permeability to propidium iodide. The relative fraction of cells that were live, in early apoptosis, in late apoptosis, or dead was then estimated. The cells were treated with DMSO, Compound A or B (2-3 μM), GDC-0941 (0.075-2 μM), or the combination of Compound A or B (2-3 μM) with GDC-0941 (0.075-2 μM) on the induction of apoptosis. Alternatively, cells were treated with DMSO, Compound A or B (2 μM), CAL-101 (2 μM), or the combination of Compound A or B (2 μM) with CAL-101 (2 μM) before measuring induction of apoptosis.

[4] = relative to start of dosing; GDC-0941 100 mg/kg PO QD, Compound A 30 mg/kg IP QD; five days per week for 3 cycles
Procedure: Percent body weight change was determined relative to the start of dosing, and the mean change±SD was plotted. All treatments were dosed five days per week for 3 cycles.

Compound | synergy in decreasing lymphoma cell viability [1] | cell cycle progression [2] | cellular apoptosis [3] | apoptosis / percentage of apoptotic cells [3] | body weight change [4]
O=C(CCCCCCNC(=O)c1cnc(N(c2ccccc2)c2ccccc2Cl)nc1)NO [Compound B, 2-((2-chlorophenyl)(phenyl)amino)-N-(7-(hydroxyamino)-7-oxoheptyl)pyrimidine-5-carboxamide] | synergistic decreases in lymphoma cell viability | decreased cell cycle progression | synergistic increases in cellular apoptosis | small increase in apoptosis relative to control cells | 
O=C(NO)c1cnc(NC2(c3cccc(F)c3)CCCCC2)nc1 [Compound C, 2-((1-(3-fluorophenyl)cyclohexyl)amino)-N-hydroxypyrimidine-5-carboxamide] | synergistic decreases in lymphoma cell viability |  |  |  | 
CS(=O)(=O)N1CCN(Cc2cc3nc(-c4cccc5[nH]ncc45)nc(N4CCOCC4)c3s2)CC1 [GDC-0941, 2-(1H-indazol-4-yl)-6-(4-methanesulfonyl-piperazin-1-ylmehtyl)-4-morpholin-4-yl-thienol[3,2-d]pyrimidine] |  |  |  | did not result in increased cell death | complete recovery after minimal body weight loss; also recorded: low level body weight loss was recovered by the end of the treatment period
O=C(CCCCCCNC(=O)c1cnc(N(c2ccccc2)c2ccccc2)nc1)NO [Compound A, 2-(diphenylamino)-N-(7-(hydroxyamino)-7-oxoheptyl) pyrimidine-5-carboxamide] | synergistic decreases in lymphoma cell viability | decreased cell cycle progression | synergistic increases in cellular apoptosis | small increase in apoptosis relative to control cells | 
